Nine molecules from patent US11981658B2, “Substituted aminopyridine compounds as EGFR inhibitors” (YUHAN CORPORATION, priority 2021, dated 2024) can be followed below.

For one test, the target named is EGFR wildtype (WT) (Homo sapiens, UniProt P00533). In words: Biochemical EGFR kinase inhibition assay (Lance Ultra TR-FRET), wildtype. The method in brief:
(§1)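 Kinase activity is measured by TR-FRET phosphopeptide detection. Compounds span 0.003 μM to 10 μM; the 1 h reaction at room temperature is quenched with EDTA, then labelled antibody (2 nM) is incubated 60 min before reading.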
(In general: TR-FRET usually uses a lanthanide donor and a delayed reading to cut background.)

The next test concerns the target EGFR Del19/C797S (Homo sapiens, UniProt P00533, C797S/DEL746-750). Put plainly: Biochemical EGFR kinase inhibition assay (Lance Ultra TR-FRET), double mutant del19/C797S. In short, it runs like this: as §1
The target in a further test is EGFR L858R/C797S (Homo sapiens, UniProt P00533, C797S/L858R). Put plainly: Biochemical EGFR kinase inhibition assay (Lance Ultra TR-FRET), double mutant L858R/C797S. The method in brief:
as §1

The next test concerns the target EGFR Del19/T790M/C797S (Homo sapiens, UniProt P00533, C797S/DEL746-750/T790M). Put plainly: Biochemical EGFR kinase inhibition assay (Lance Ultra TR-FRET), triple mutant del19/T790M/C797S. The method in brief: as §1
Another test has as its target EGFR L858R/T790M/C797S (Homo sapiens, UniProt P00533, C797S/L858R/T790M). In words: Biochemical EGFR kinase inhibition assay (Lance Ultra TR-FRET), triple mutant L858R/T790M/C797S. The method in brief: as §1
[1] abbreviates: Km ATP, read-out: IC50 WT (nM), Km ATP.
Where [2] appears, read: IC50 Del19/C797S (nM), 100 μM ATP.
The mark [3] stands for this setting: Km ATP, read-out: IC50 Del19/C797S (nM), Km ATP.
Where [4] appears, read: IC50 L858R/C797S (nM), 100 μM ATP.
Setting [5] is: Km ATP, read-out: IC50 L858R/C797S (nM), Km ATP.
Where [6] appears, read: IC50 Del19/T790M/C797S (nM), 100 μM ATP.
The mark [7] stands for this setting: Km ATP, read-out: IC50 Del19/T790M/C797S (nM), Km ATP.
The mark [8] stands for this setting: IC50 L858R/T790M/C797S (nM), 100 μM ATP.
Setting [9] is: Km ATP, read-out: IC50 L858R/T790M/C797S (nM), Km ATP.
Setting [10] is: ATP at Km, read-out: IC50 WT (nM), Km ATP.
Setting [11] is: ATP at Km, read-out: IC50 Del19/C797S (nM), Km ATP.
Where [12] appears, read: ATP at Km, read-out: IC50 L858R/C797S (nM), Km ATP.
Where [13] appears, read: ATP at Km, read-out: IC50 Del19/T790M/C797S (nM), Km ATP.
The mark [14] stands for this setting: ATP at Km, read-out: IC50 L858R/T790M/C797S (nM), Km ATP.

Read-outs that look alike come from different tables or passages of the source.

Sequence of EGFR Del19/C797S (P00533 with tags, fused parts or gaps DEL746-750/C797S): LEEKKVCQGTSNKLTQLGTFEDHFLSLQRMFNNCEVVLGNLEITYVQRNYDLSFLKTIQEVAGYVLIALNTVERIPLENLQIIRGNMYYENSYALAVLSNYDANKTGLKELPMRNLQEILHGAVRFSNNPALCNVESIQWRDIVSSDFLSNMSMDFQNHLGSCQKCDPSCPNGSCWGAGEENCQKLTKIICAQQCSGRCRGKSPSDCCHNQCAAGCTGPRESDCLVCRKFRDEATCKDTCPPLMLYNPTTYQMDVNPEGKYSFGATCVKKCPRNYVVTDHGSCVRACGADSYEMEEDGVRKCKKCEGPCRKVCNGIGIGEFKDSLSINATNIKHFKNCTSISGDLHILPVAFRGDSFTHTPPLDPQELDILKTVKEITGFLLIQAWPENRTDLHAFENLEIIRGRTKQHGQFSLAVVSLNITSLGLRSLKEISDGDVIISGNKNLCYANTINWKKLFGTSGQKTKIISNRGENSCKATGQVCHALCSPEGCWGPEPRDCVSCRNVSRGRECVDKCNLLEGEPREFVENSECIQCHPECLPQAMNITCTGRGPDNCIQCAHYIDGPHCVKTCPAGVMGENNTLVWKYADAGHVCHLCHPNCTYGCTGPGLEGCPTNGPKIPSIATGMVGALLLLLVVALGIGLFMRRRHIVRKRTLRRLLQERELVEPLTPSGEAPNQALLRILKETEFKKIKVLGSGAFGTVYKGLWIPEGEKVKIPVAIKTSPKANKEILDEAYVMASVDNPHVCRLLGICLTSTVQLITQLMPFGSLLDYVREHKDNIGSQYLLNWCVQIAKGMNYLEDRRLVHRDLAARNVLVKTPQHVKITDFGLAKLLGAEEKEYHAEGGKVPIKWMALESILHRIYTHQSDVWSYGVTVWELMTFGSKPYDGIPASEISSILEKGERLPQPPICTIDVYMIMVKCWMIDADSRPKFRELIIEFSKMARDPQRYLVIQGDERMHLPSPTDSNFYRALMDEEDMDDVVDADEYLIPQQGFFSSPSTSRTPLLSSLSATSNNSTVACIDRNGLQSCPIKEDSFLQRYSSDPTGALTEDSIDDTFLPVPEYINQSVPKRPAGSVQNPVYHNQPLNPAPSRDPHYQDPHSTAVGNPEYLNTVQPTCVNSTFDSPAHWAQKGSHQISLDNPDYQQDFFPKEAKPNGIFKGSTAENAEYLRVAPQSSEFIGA
Sequence of EGFR L858R/C797S (P00533 25-1210 C797S/L858R): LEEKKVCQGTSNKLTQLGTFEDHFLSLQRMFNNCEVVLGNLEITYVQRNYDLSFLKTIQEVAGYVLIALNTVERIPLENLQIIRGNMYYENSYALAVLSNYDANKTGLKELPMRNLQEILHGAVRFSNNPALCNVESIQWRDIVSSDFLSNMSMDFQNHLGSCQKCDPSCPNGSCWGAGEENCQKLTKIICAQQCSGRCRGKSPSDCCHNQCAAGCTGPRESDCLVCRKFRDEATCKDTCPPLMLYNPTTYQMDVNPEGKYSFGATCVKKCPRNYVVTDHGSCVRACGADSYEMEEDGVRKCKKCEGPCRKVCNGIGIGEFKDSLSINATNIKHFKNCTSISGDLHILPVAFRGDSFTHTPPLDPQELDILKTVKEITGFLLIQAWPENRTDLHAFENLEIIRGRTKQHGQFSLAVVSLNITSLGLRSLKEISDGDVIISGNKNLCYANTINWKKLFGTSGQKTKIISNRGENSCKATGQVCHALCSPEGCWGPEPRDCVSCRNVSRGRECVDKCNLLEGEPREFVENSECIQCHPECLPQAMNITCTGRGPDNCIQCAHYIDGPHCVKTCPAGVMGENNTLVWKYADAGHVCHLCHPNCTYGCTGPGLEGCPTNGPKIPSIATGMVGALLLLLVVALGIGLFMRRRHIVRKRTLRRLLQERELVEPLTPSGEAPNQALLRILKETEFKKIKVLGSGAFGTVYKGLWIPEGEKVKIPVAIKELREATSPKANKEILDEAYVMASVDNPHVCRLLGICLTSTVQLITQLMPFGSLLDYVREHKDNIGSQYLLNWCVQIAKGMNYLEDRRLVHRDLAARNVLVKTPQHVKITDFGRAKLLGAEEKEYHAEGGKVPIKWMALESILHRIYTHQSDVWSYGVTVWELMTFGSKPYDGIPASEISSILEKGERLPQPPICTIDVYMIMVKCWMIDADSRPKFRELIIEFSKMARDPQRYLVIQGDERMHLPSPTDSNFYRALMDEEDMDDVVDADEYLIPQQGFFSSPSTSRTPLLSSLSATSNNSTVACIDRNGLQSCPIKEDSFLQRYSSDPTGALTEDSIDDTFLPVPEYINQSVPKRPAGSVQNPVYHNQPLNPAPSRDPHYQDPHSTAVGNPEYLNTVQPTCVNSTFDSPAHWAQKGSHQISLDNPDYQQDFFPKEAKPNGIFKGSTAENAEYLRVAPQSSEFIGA
Sequence of EGFR L858R/T790M/C797S (P00533 25-1210 T790M/C797S/L858R): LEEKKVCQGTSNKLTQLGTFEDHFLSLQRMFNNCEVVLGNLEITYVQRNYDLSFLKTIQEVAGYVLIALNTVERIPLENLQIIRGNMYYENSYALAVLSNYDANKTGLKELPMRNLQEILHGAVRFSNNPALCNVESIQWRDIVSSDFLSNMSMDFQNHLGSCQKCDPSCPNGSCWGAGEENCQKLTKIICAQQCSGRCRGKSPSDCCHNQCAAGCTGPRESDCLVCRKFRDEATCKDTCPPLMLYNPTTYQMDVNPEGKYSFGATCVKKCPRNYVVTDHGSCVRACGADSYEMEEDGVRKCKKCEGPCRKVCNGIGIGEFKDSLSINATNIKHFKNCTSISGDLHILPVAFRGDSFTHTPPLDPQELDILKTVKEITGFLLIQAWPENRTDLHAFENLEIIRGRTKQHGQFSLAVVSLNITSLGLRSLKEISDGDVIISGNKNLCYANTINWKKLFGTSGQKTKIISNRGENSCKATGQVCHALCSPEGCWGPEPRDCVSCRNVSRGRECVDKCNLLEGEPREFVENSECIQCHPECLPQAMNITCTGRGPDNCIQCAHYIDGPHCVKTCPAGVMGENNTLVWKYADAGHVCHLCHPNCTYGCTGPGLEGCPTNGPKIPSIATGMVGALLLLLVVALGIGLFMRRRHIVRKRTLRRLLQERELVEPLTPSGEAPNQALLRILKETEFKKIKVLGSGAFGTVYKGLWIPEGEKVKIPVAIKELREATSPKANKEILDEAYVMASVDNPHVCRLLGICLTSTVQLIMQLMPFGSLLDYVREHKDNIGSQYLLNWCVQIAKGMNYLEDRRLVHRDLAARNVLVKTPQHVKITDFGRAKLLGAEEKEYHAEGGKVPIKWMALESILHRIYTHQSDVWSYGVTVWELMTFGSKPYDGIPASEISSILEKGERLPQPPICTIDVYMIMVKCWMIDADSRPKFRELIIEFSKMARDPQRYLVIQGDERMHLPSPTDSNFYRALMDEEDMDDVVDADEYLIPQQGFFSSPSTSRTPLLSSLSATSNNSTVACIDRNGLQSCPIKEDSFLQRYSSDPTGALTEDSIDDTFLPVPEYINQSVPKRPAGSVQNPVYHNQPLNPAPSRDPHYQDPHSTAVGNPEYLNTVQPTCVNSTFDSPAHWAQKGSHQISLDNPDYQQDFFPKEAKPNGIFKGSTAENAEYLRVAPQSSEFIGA
Sequence of EGFR Del19/T790M/C797S (P00533 with tags, fused parts or gaps DEL746-750/T790M/C797S): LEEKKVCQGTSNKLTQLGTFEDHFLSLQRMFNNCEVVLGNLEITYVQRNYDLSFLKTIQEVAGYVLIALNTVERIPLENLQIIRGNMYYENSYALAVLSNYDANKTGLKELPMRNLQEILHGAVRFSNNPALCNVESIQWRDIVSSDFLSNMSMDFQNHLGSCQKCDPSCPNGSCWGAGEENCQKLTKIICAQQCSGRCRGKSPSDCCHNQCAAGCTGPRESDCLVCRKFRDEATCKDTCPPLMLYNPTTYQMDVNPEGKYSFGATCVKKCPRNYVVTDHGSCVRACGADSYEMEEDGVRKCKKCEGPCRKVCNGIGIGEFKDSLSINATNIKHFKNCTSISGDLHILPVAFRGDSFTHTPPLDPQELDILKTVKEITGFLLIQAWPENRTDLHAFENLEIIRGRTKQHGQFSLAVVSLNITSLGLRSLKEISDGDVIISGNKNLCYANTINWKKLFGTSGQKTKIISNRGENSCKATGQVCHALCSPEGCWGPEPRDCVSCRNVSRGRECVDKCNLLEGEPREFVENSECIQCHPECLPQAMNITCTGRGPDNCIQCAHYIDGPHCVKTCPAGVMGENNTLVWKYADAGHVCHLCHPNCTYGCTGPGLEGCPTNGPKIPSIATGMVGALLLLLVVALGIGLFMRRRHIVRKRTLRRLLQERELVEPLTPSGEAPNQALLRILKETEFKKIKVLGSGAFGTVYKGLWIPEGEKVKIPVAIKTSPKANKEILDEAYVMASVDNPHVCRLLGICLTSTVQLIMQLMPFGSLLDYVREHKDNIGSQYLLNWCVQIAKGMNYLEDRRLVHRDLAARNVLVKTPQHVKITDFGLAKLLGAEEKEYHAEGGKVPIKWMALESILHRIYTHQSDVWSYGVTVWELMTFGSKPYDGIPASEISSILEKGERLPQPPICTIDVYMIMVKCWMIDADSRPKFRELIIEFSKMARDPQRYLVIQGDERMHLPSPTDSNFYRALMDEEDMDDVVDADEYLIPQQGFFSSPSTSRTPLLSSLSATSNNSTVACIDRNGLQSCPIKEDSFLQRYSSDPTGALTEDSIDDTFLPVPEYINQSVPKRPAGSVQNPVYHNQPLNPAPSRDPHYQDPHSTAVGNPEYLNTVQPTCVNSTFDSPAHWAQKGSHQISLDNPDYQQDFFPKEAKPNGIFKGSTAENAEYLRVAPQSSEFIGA

As to `CN1CCN(Cc2ccc(C#Cc3cnc(Nc4ccnc(-c5cnn(S(=O)(=O)C6CC6)c5)n4)cc3N3CCC(C)(O)CC3)cc2)CC1` [Example 368, 1-(2-((2-(1-(Cyclopropylsulfonyl)-1H-pyrazol-4-yl)pyrimidin-4-yl)amino)-5-((4-((4-methylpiperazin-1-yl)methyl)phenyl)ethynyl)pyridin-4-yl)-4-methylpiperidin-4-ol], the IC50 against EGFR wildtype (WT) (IC50 WT (nM), 100 μM ATP) was 197 nM; at EGFR wildtype (WT) (setting [1]), 0.8 nM; at EGFR Del19/C797S (setting [2]), 0.7 nM; on EGFR Del19/C797S (setting [3]) it was 0.6 nM; at EGFR L858R/C797S (setting [4]) it was 1.4 nM; at EGFR L858R/C797S (setting [5]), 0.7 nM. Further, the IC50 against EGFR Del19/T790M/C797S (setting [6]) was 0.4 nM; at EGFR Del19/T790M/C797S (setting [7]) it was 0.4 nM; on EGFR L858R/T790M/C797S (setting [8]), 0.2 nM; on EGFR L858R/T790M/C797S (setting [9]), 0.1 nM.
As to `CN1CCN(Cc2ccc(C#Cc3cnc(Nc4ccnc(-c5cnn(S(=O)(=O)C6CC6)c5)n4)cc3NC[C@H]3CC[C@H](O)CC3)cc2)CC1` [Example 361, (1 r,4r)-4-(((2-((2-(1-(Cyclopropylsulfonyl)-1H-pyrazol-4-yl)pyrimidin-4-yl)amino)-5-((4-((4-methylpiperazin-1-yl)methyl)phenyl)ethynyl)pyridin-4-yl)amino)methyl)cyclohexan-1-ol], the IC50 was above 10000 nM on EGFR wildtype (WT) (IC50 WT (nM), 100 μM ATP); 4.3 nM on EGFR Del19/C797S (setting [2]); 468 nM on EGFR L858R/C797S (setting [4]); 0.7 nM against EGFR Del19/T790M/C797S (setting [6]); 1.5 nM on EGFR L858R/T790M/C797S (setting [8]).
Consider `CN(C)CCC1CCN(c2cc(Nc3ccnc(-c4cnn(S(=O)(=O)C5CC5)c4)n3)ncc2C#Cc2cnn(CC(F)(F)F)c2)CC1` [Example 349, 2-(1-(Cyclopropylsulfonyl)-1H-pyrazol-4-yl)-N-(4-(4-(2-(dimethylamino)ethyl)piperidin-1-yl)-5-((1-(2,2,2-trifluoroethyl)-1H-pyrazol-4-yl)ethynyl)pyridin-2-yl)pyrimidin-4-amine], for which the IC50 against EGFR wildtype (WT) (IC50 WT (nM), 100 μM ATP) amounted to 844 nM; at EGFR wildtype (WT) (setting [1]), 9.1 nM; against EGFR Del19/C797S (setting [2]), 4.8 nM; on EGFR Del19/C797S (setting [3]) it was 2.6 nM; on EGFR L858R/C797S (setting [4]) it was 9.4 nM; at EGFR L858R/C797S (setting [5]), 1.4 nM. The IC50 was found to be 1.5 nM against EGFR Del19/T790M/C797S (setting [6]), 1.5 nM on EGFR Del19/T790M/C797S (setting [7]), 1 nM against EGFR L858R/T790M/C797S (setting [8]) and 0.5 nM at EGFR L858R/T790M/C797S (setting [9]).
Take `O=S1(=O)CCC(C#Cc2cnc(Nc3ccnc(-c4cnn(S(=O)(=O)C5CC5)c4)n3)cc2NC2CCC(CO)CC2)C1` (centres unmarked) [Example 428, 3-((6-((2-(1-(Cyclopropylsulfonyl)-1H-pyrazol-4-yl)pyrimidin-4-yl)amino)-4-(((1s,4s)-4-(hydroxymethyl)cyclohexyl)amino)pyridin-3-yl)ethynyl)tetrahydrothiophene 1,1-dioxide]: the IC50 at EGFR wildtype (WT) (IC50 WT (nM), 100 μM ATP) was above 10000 nM; at EGFR wildtype (WT) (setting [1]), 18.6 nM; against EGFR Del19/C797S (setting [2]), 1.9 nM; on EGFR Del19/C797S (setting [3]), 4 nM; against EGFR L858R/C797S (setting [4]), 28.5 nM; on EGFR L858R/C797S (setting [5]), 4.9 nM. Moreover, the IC50 on EGFR Del19/T790M/C797S (setting [6]) was 0.5 nM; on EGFR Del19/T790M/C797S (setting [7]), 0.1 nM; at EGFR L858R/T790M/C797S (setting [8]), 0.2 nM; on EGFR L858R/T790M/C797S (setting [9]), 0.1 nM.
As to `CC1(CO)CCN(c2cc(Nc3ccnc(-c4cnn(S(=O)(=O)C5CC5)c4)n3)ncc2C#CC2CC2)CC1` [Example 250, (1-(5-(Cyclopropylethynyl)-2-((2-(1-(cyclopropylsulfonyl)-1H-pyrazol-4-yl)pyrimidin-4-yl)amino)pyridin-4-yl)-4-methylpiperidin-4-yl)methanol], the IC50 is 15 nM at EGFR wildtype (WT) (setting [10]); above 10000 nM at EGFR wildtype (WT) (IC50 WT (nM), 100 μM ATP); 2 nM at EGFR Del19/C797S (setting [11]); 2.8 nM on EGFR Del19/C797S (setting [2]); 6.6 nM at EGFR L858R/C797S (setting [12]); 74.7 nM at EGFR L858R/C797S (setting [4]). The IC50 came out at 0.7 nM at EGFR Del19/T790M/C797S (setting [13]), 0.7 nM on EGFR Del19/T790M/C797S (setting [6]), 0.4 nM at EGFR L858R/T790M/C797S (setting [14]) and 0.9 nM at EGFR L858R/T790M/C797S (setting [8]).
As for `CS(=O)(=O)N1CCC(C#Cc2cnc(Nc3ccnc(-c4cnn(S(=O)(=O)C5CC5)c4)n3)cc2NCC2CCC(CO)CC2)C1` (centres unmarked) [Example 400, ((1r,4r)-4-(((2-((2-(1-(Cyclopropylsulfonyl)-1H-pyrazol-4-yl)pyrimidin-4-yl)amino)-5-((1-(methylsulfonyl)pyrrolidin-3-yl)ethynyl)pyridin-4-yl)amino)methyl)cyclohexyl)methanol], the IC50 against EGFR wildtype (WT) (IC50 WT (nM), 100 μM ATP) was above 10000 nM; at EGFR wildtype (WT) (setting [1]), 310 nM; on EGFR Del19/C797S (setting [2]), 35.6 nM; at EGFR Del19/C797S (setting [3]), 12.8 nM; against EGFR L858R/C797S (setting [4]), 1570 nM; on EGFR L858R/C797S (setting [5]), 17.9 nM. Also, the IC50 at EGFR Del19/T790M/C797S (setting [6]) came out at 19.3 nM; on EGFR Del19/T790M/C797S (setting [7]), 34 nM; at EGFR L858R/T790M/C797S (setting [8]), 22.5 nM; at EGFR L858R/T790M/C797S (setting [9]) it was 26.1 nM.
With `CC1(CO)CCN(c2cc(Nc3ccnc(-c4cnn(S(=O)(=O)C5CC5)c4)n3)ncc2C#Cc2ccc(CN3CCOCC3)nc2)CC1` [Example 187, (1-(2-((2-(1-(Cyclopropylsulfonyl)-1H-pyrazol-4-yl)pyrimidin-4-yl)amino)-5-((6-(morpholinomethyl)pyridin-3-yl)ethynyl)pyridin-4-yl)-4-methylpiperidin-4-yl)methanol], the IC50 on EGFR wildtype (WT) (setting [10]) was 3.9 nM; on EGFR wildtype (WT) (IC50 WT (nM), 100 μM ATP), 932 nM; at EGFR Del19/C797S (setting [11]), 1.6 nM; against EGFR Del19/C797S (setting [2]), 0.9 nM; on EGFR L858R/C797S (setting [12]) it was 2 nM; on EGFR L858R/C797S (setting [4]), 8.2 nM. For the same molecule, the IC50 stood at 0.9 nM at EGFR Del19/T790M/C797S (setting [13]), 0.5 nM on EGFR Del19/T790M/C797S (setting [6]), 1.2 nM on EGFR L858R/T790M/C797S (setting [14]) and 0.8 nM on EGFR L858R/T790M/C797S (setting [8]).
Consider `O=S(=O)(C1CC1)n1cc(-c2nccc(Nc3cc(N[C@H]4CCC[C@H](O)C4)c(C#Cc4cnn(CC(F)(F)F)c4)cn3)n2)cn1` [Example 341, (1S,3S)-3-((2-((2-(1-(Cyclopropylsulfonyl)-1H-pyrazol-4-yl)pyrimidin-4-yl)amino)-5-((1-(2,2,2-trifluoroethyl)-1H-pyrazol-4-yl)ethynyl)pyridin-4-yl)amino)cyclohexan-1-ol], for which the IC50 was above 10000 nM against EGFR wildtype (WT) (IC50 WT (nM), 100 μM ATP); 163 nM on EGFR wildtype (WT) (setting [1]); 34.2 nM against EGFR Del19/C797S (setting [2]); 21.4 nM at EGFR Del19/C797S (setting [3]); 128 nM on EGFR L858R/C797S (setting [4]); 42.4 nM on EGFR L858R/C797S (setting [5]). Moreover, the IC50 against EGFR Del19/T790M/C797S (setting [6]) was determined as 3.1 nM; at EGFR Del19/T790M/C797S (setting [7]), 2.5 nM; on EGFR L858R/T790M/C797S (setting [8]), 4 nM; at EGFR L858R/T790M/C797S (setting [9]) it was 0.9 nM.
In the case of `O=S(=O)(C1CC1)n1cc(-c2nccc(Nc3cc(N4CCC[C@H](O)C4)c(C#Cc4ccsc4)cn3)n2)cn1` [Example 228, (S)-1-(2-((2-(1-(Cyclopropylsulfonyl)-1H-pyrazol-4-yl)pyrimidin-4-yl)amino)-5-(thiophen-3-ylethynyl)pyridin-4-yl)piperidin-3-ol], the IC50 is above 10000 nM on EGFR wildtype (WT) (IC50 WT (nM), 100 μM ATP); 274 nM at EGFR Del19/C797S (setting [2]); 494 nM against EGFR L858R/C797S (setting [4]); 6.2 nM at EGFR Del19/T790M/C797S (setting [6]); 21.8 nM against EGFR L858R/T790M/C797S (setting [8]).
